Measurements as given in article PMC6151740, “Pharmacokinetics, Tissue Distribution, and Elimination of Three Active Alkaloids in Rats after Oral Administration of the Effective Fraction of Alkaloids from Ramulus Mori, an Innovative Hypoglycemic Agent” (Molecules : A Journal of Synthetic Chemistry and Natural …, 2017).
Where two headings read alike, the source gives them in different places.

Experiments:
[1] = Plasma pharmacokinetic study in rats after oral and intravenous administration of SZ–A or purified DNJ; format: in vivo, rat; settings: for MRT last: read-out: MRT0–t; for MRT inf: read-out: MRT0–∞; for bioavailability: plasma, read-out: F (oral absolute bioavailability)
Protocol: The oral dosing solutions used for all animal studies were prepared by dissolving in water. Thirty rats weighed 250–270 g after acclimation were randomly divided into six groups of five animals each. For oral administration, rats were treated with SZ–A (40, 200, 1000 mg/kg) or purified DNJ (15 mg/kg) dissolve in water. Blood samples (about 0.25 mL) were collected via the postorbital venous plexus veins under ether anesthesia into heparinized polythene tubes before dosing and at 0.08, 0.17, 0.33, 0.50, 1, 2, 3, 4, 6, 8, 12, 24 and 36 h after drug administration. For intravenous dosing, rats were given SZ–A (4 mg/kg) or DNJ (1.5 mg/kg) dissolved in normal saline solution through the tail vein. Then blood samples were collected at 0.03, 0.08, 0.17, 0.33, 0.67, 1, 2, 4, 6, 8, 12, 24, and 36 h under similar conditions. Considering the physical limit of blood in rats, during the process of the pharmacokinetic experiment, each rat was received 0.25 mL of sterile isotonic saline at each time point after blood sampling for compensation of body fluid loss, and the blood loss was also corrected at a definite degree. Plasma was separated by centrifuging the blood samples at 1660× g for 5 min and stored at −20 °C until LC-MS/MS analysis. Data fitting and pharmacokinetic parameter estimates were carried out using non–compartmental analysis via WinNonlin Software (version 6.1, Pharsight Corporation, Mountain View, CA, USA). F was calculated according to the formula: F (%) = (AUC oral/AUC i.v.) × (dose i.v./dose oral) × 100.
The plasma, feces, urine, and bile samples (100 μL) were added to 1 μL of Tris aqueous solution (2 M), 10 μL of IS working solution (2 μg/mL), and 190 μL methanol–acetonitrile (25:75, v/v). The incubation supernatant samples (300 μL) were mixed with 1 μL Tris aqueous solution (2 M) and 10 μL of IS working solution (2 μg/mL). All mixtures were vortexed for 30 s followed by centrifugation at 18,880× g for 5 min, twice.
Briefly, the LC-MS/MS instrument consisted of a 1260 HPLC system (Agilent, Santa Clara, CA, USA) and API4000 triple quadrupole mass spectrometer (Applied Biosystems Sciex, Toronto, ON, Canada) with an electrospray ionization (ESI) source and Analyst software (version 1.5.2, Applied Biosystems Sciex, Toronto, ON, Canada) for data acquisition and processing. DNJ, FGM, DAB, and IS were separated in a Xbridge amide™ column (3.5 μm, 4.6 mm × 150 mm; Waters, Milford, MA, USA) with a gradient mobile phase of acetonitrile-water (0.1% ammonium hydroxide) at a flow rate of 0.7 mL/min. An ESI source was used in the positive ion mode. The optimized mass spectrometric condition was as follows: ion spray voltage, 5500 V; collision gas, 6 psi; curtain gas, 20 psi; ion source gas 1 (GS1), 45 psi; ion source gas 2 (GS2), 45 psi; temperature, 450 °C. The multiple reaction monitoring (MRM) transitions of DNJ, FGM, DAB, and IS were m/z 164.0→110.1 (declustering potential (DP) 50 V, collision energy (CE) 22 V, collision cell exit potential (CXP) 10 V), 148.0→112.1 (DP 66 V, CE 21 V, CXP 10 V), 134.0→98.0 (DP 60 V, CE 20 V, CXP 10 V) and 208.0→146.1 (DP 50 V, CE 27 V, CXP 10 V), respectively.

[2] = tested on: rat caecal microbiota cultures; assay: In vitro incubation of SZ–A with rat caecal microbiota cultures; format: in vitro ADME; settings: 2 h
Protocol: Pooled rat intestinal homogenate from six males was prepared using a tissue homogenizer with ice cold normal saline solution at a proportion of 1:3 (w/v). SZ–A was incubated with rat intestinal homogenate (5 mg protein/mL) with/without a NADPH-generating system (0.011 M β-NADP, 0.1 M glucose 6-phosphate, 10 U/mL glucose-6-phosphate dehydrogenase) in a 37 °C water bath for 120 min. Meanwhile, caecal content was collected and mixed with anaerobic medium (1:30, w/v) to prepare the cultures under nitrogen atmosphere at 37 °C for 120 min. SZ–A and rat caecal microbiota cultures were incubated at a total volume of 200 μL with the boiled samples as the negative control, concomitantly. The incubation was stopped at 2 h by adding two volumes of methanol–acetonitrile (1:3, v/v). Triplicate supernatants were taken by centrifugation at 18,880× g for 5 min and stored at −20 °C until LC-MS/MS analysis. The results were expressed as the percentage of the concentration at 0 min.

[3] = Sprague-Dawley, iv, rat plasma, SZ–A 4 mg/kg i.v., n = 5
[4] = Sprague-Dawley, po, rat plasma, SZ–A 40 mg/kg p.o., n = 5
[5] = Sprague-Dawley, po, rat plasma, SZ–A 200 mg/kg p.o., n = 5
[6] = Sprague-Dawley, po, rat plasma, SZ–A 1000 mg/kg p.o., n = 5
[7] = rat plasma, SZ–A 40 mg/kg p.o., n = 5
[8] = rat plasma, SZ–A 200 mg/kg p.o., n = 5
[9] = rat plasma, SZ–A 1000 mg/kg p.o., n = 5

Compound: OC[C@H]1NC[C@@H](O)[C@@H]1O [DAB, 1,4-dideoxy-1,4-imino-D-arabinitol]
- AUC(0-inf) [1, 3]: 129 ± 20.1 ng·h/mL
- AUC(0-t) [1, 3]: 124 ± 20.8 ng·h/mL
- Cmax [1, 3]: 625 ± 183 ng/mL
- Tmax [1, 3]: 0.033 h
- half-life [1, 3]: 0.18 ± 0.03 h
- clearance ([1]; Sprague-Dawley, iv, rat plasma, SZ–A 4 mg/kg i.v., n = 5, read-out: CLz (converted)): 25.6 mL/min/kg
- MRT last [1, 3]: 0.18 ± 0.04 h
- MRT inf [1, 3]: 0.21 ± 0.05 h
- Vd ([1]; Sprague-Dawley, iv, rat plasma, SZ–A 4 mg/kg i.v., n = 5, read-out: Vd): 0.401 ± 0.0408 L/kg
- bioavailability ([1]; Sprague-Dawley, po, rat, SZ–A 40 mg/kg p.o. vs SZ–A 4 mg/kg i.v.): 78.2%
- bioavailability ([1]; Sprague-Dawley, po, rat, SZ–A 200 mg/kg p.o. vs SZ–A 4 mg/kg i.v.): 56.6%
- bioavailability ([1]; Sprague-Dawley, po, rat, SZ–A 1000 mg/kg p.o. vs SZ–A 4 mg/kg i.v.): 40.1%
- AUC(0-inf) [1, 4]: 978 ± 140 ng·h/mL
- AUC(0-t) [1, 4]: 969 ± 147 ng·h/mL
- Cmax [1, 4]: 708 ± 171 ng/mL
- Tmax [1, 4]: 0.67 ± 0.29 h
- half-life [1, 4]: 1.22 ± 0.16 h
- MRT last [1, 4]: 1.32 ± 0.18 h
- MRT inf [1, 4]: 1.42 ± 0.25 h
- AUC(0-inf) [1, 5]: 3560 ± 729 ng·h/mL
- AUC(0-t) [1, 5]: 3510 ± 716 ng·h/mL
- Cmax [1, 5]: 2000 ± 656 ng/mL
- Tmax [1, 5]: 0.57 ± 0.09 h
- half-life [1, 5]: 1.38 ± 0.23 h
- MRT last [1, 5]: 1.95 ± 0.35 h
- MRT inf [1, 5]: 2.09 ± 0.29 h
- AUC(0-inf) [1, 6]: 12900 ng·h/mL
- AUC(0-t) [1, 6]: 12400 ng·h/mL
- Tmax [1, 6]: 0.47 ± 0.14 h
- half-life [1, 6]: 2.38 ± 0.97 h
- MRT last [1, 6]: 4.09 ± 1.19 h
- MRT inf [1, 6]: 4.66 ± 1.52 h
- CLz [1, 7]: 33.188 ± 4.977 mL/min/kg
- Vd [1, 7]: 3.5486 ± 0.9901 L/kg
- CLz [1, 8]: 46.928 ± 9.39 mL/min/kg
- Vd [1, 8]: 5.4724 ± 0.5717 L/kg
- CLz [1, 9]: 65.433 ± 14.71 mL/min/kg
- Vd [1, 9]: 13,892.2 ± 7160.0 mL/kg
- time to reach maximum plasma concentration (Cmax) ([1]; rat, after oral administration of SZ–A (40, 200, 1000 mg/kg), upper bound over doses): ≤ 0.67 h
- percentage of initial amount after incubation with rat gut microbiota cultures ([2]; 4.35 μg/mL SZ–A (10 μM DNJ, 1.9 μM FGM, 1.6 μM DAB)): 182.2%
- percentage of initial amount after incubation with rat gut microbiota cultures ([2]; 10.87 μg/mL SZ–A (25 μM DNJ, 4.7 μM FGM, 3.9 μM DAB)): 159.3%
